PubChem BioAssay (NCI)
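Following 48 hours of exposure in 96-well plates, responses at five concentrations were used to interpolate endpoints linearly. GI50 is the concentration that inhibits growth by half. TGI is the concentration that stops growth completely.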

Experiments:
Test in all cases: NCI-60 cell line screen, 48 h
LOX IMVI melanoma = test system: LOX IMVI melanoma
K-562 leukemia = test system: K-562 leukemia
SK-OV-3 ovarian = test system: SK-OV-3 ovarian
SF-268 CNS = test system: SF-268 CNS
786-0 renal = test system: 786-0 renal
CCRF-CEM leukemia = test system: CCRF-CEM leukemia
NCI-H23 lung = test system: NCI-H23 lung
NCI-H522 lung = test system: NCI-H522 lung
DU-145 prostate = test system: DU-145 prostate
CAKI-1 renal = test system: CAKI-1 renal
M14 melanoma = test system: M14 melanoma
SK-MEL-5 melanoma = test system: SK-MEL-5 melanoma
A549 NSCLC = test system: A549 NSCLC
MALME-3M melanoma = test system: MALME-3M melanoma
NCI-H226 lung = test system: NCI-H226 lung
MOLT-4 leukemia = test system: MOLT-4 leukemia
OVCAR-3 ovarian = test system: OVCAR-3 ovarian
MDA-MB-468 breast = test system: MDA-MB-468 breast
OVCAR-4 ovarian = test system: OVCAR-4 ovarian
SNB-19 CNS = test system: SNB-19 CNS
HOP-92 NSCLC = test system: HOP-92 NSCLC
MCF7 breast = test system: MCF7 breast
TK-10 renal = test system: TK-10 renal
UACC-257 melanoma = test system: UACC-257 melanoma
SN12C renal = test system: SN12C renal
BT-549 breast = test system: BT-549 breast
HCT-15 colon = test system: HCT-15 colon
ACHN renal = test system: ACHN renal

O=C(Nc1nc2ccc([N+](=O)[O-])cc2s1)Nc1ccccc1I
TGI (LOX IMVI melanoma): 15.1 µM | GI50 (K-562 leukemia): 3.23 µM | TGI (K-562 leukemia): 13.9 µM | GI50 (SK-OV-3 ovarian): 2.67 µM | TGI (SK-OV-3 ovarian): 9.38 µM | GI50 (SF-268 CNS): 3.78 µM | TGI (SF-268 CNS): > 100 µM | GI50 (786-0 renal): 3.61 µM | TGI (786-0 renal): 32.1 µM | GI50 (CCRF-CEM leukemia): 3.57 µM | TGI (CCRF-CEM leukemia): 52 µM | GI50 (NCI-H23 lung): 2.76 µM | TGI (NCI-H23 lung): 8.15 µM | GI50 (NCI-H522 lung): 2.73 µM | TGI (NCI-H522 lung): 9.1 µM | GI50 (DU-145 prostate): 4.25 µM | TGI (DU-145 prostate): > 100 µM | GI50 (CAKI-1 renal): 3.46 µM | TGI (CAKI-1 renal): > 100 µM | GI50 (M14 melanoma): 4.28 µM | TGI (M14 melanoma): 89.8 µM | GI50 (SK-MEL-5 melanoma): 1.86 µM | TGI (SK-MEL-5 melanoma): 3.86 µM | GI50 (A549 NSCLC): 3.81 µM | TGI (A549 NSCLC): 19.2 µM | GI50 (MALME-3M melanoma): 2.37 µM | TGI (MALME-3M melanoma): 8.4 µM | GI50 (NCI-H226 lung): 3.77 µM | TGI (NCI-H226 lung): 19.4 µM | GI50 (MOLT-4 leukemia): 2.92 µM | TGI (MOLT-4 leukemia): 8.41 µM | GI50 (OVCAR-3 ovarian): 3.11 µM | TGI (OVCAR-3 ovarian): 10.7 µM | GI50 (MDA-MB-468 breast): 2.41 µM | TGI (MDA-MB-468 breast): 7.79 µM | GI50 (OVCAR-4 ovarian): 3.94 µM | TGI (OVCAR-4 ovarian): > 100 µM | GI50 (SNB-19 CNS): 3.32 µM | TGI (SNB-19 CNS): 19 µM | GI50 (HOP-92 NSCLC): 2.3 µM | TGI (HOP-92 NSCLC): 6.95 µM | GI50 (MCF7 breast): 2.91 µM | TGI (MCF7 breast): 11 µM | GI50 (TK-10 renal): 3.43 µM | TGI (TK-10 renal): 24.3 µM | GI50 (UACC-257 melanoma): 3.17 µM | TGI (UACC-257 melanoma): 16 µM | GI50 (SN12C renal): 3.1 µM | TGI (SN12C renal): 12.2 µM | GI50 (BT-549 breast): 2.86 µM | TGI (BT-549 breast): 10.5 µM | GI50 (HCT-15 colon): 3.4 µM | TGI (HCT-15 colon): 14.6 µM | GI50 (ACHN renal): 3.58 µM | TGI (ACHN renal): 15.6 µM
